Assay results taken from patent US11807608B2, “Polymerizable compounds with one or more surfactant-like properties” (University of Manitoba, priority 2017, dated 2023).

Assay: Surface tension by Wilhelmy plate (KRUSS K100 Tensiometer, ASTM D1331-14)
Assay type: physicochemical
Description: A KRUSS K100 Tensiometer was used to determine the surface tension of a sample of the compounds in liquid water at different concentrations. The concentrations tested were 0.5%, 1.0%, 3.0%, 5.0% and 10%. A platinum plate with dimensions of about 19.9 mm×about 0.2 mm×about 10 mm (width, thickness and height respectfully) was attached to a sensitive mass balance. The sample was raised to the fixed platinum plate at a rate of 10 mm/min with a detection sensitivity of 0.005 g until the liquid sample reached the bottom of the plate. The plate was then immersed in the liquid sample at a depth of 2 mm for 60-150 seconds and any change in mass was recorded by the equipment as a function of time. Force was determined using the equation f=ma.
The surface tension (γ) of each liquid sample was calculated from the force measurement (f) using the equation outlined in Method C: Surface Tension by Wilhelmy plate, ASTM D1331-14.
[formula] where (l) is the length and (t) is the thickness of the plate. The contact angle was assumed to be 0. The test results describe a trend and general indication of the surfactant properties of each compound tested.

[1] = 0.5% in water, 150 second measurement
[2] = 1.0% in water, 150 second measurement
[3] = 3.0% in water, 150 second measurement
[4] = 5.0% in water, 150 second measurement
[5] = 10.0% in water, 150 second measurement

Row | Surface Tension Mean [1] [mN/m] | Surface Tension Mean [2] [mN/m] | Surface Tension Mean [3] [mN/m] | Surface Tension Mean [4] [mN/m] | Surface Tension Mean [5] [mN/m] | Compound | Surface Tension Mean (0.5% in water, 60 second measurement) [mN/m] | Surface Tension Mean (1.0% in water, 60 second measurement) [mN/m] | Surface Tension Mean (3.0% in water, 60 second measurement) [mN/m] | Surface Tension Mean (5.0% in water, 60 second measurement) [mN/m] | Surface Tension Mean (10.0% in water, 60 second measurement) [mN/m]
1 |  |  |  |  |  | C=C(C)C(=O)NCCC[N+](C)(C)CCCCCCCCCC[N+](C)(C)C1CC(C)(C)NC(C)(C)C1.[Br-].[Br-] [Formula 5, PIP-C10-C3-methyl, methyl, acrylamide] | 36.93 | 32.55 | 31.23 | 30.28 | 29.57
2 | 47.18 | 39.51 | 36.93 | 35.50 | 36.39 | C=C(C)C(=O)OCC[N+](C)(C)CCCCCCCCCC[N+](C)(C)C1CC(C)(C)NC(C)(C)C1.[Br-].[Br-] [Formula 6] |  |  |  |  | 
3 | 37.16 | 36.19 | 35.80 | 35.84 | 30.44 | C=C(C)C(=O)OCCCCCCCCCCC[N+](C)(C)C1CC(C)(C)NC(C)(C)C1.[Br-] [Formula 9] |  |  |  |  | 
